Values quoted from earlier work as cited in patent publication US5709992A, “Method for disinfecting red blood cells” (priority 1995, dated 1998).

Target: erythrocyte glutathione (GSH) peroxidase (Homo sapiens, UniProt P07203)
Settings: read-out: Km (peroxide), effective at very low concentrations of peroxide

erythrocyte glutathione (GSH) peroxidase, sequence (P07203 whole entry): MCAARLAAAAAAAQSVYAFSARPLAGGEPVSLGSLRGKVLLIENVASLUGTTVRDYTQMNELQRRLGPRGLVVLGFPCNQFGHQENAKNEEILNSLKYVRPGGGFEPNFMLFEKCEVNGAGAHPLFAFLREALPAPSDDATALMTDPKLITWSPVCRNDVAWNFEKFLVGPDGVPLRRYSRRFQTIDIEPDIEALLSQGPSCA

- Km: 1 µM
SMILES: OO [peroxide, hydrogen peroxide]
